Our source for the % of inhibition, % of control and pXC50 values is ChEMBL document CHEMBL5465560, “Selectivity Literature for EUbOPEN Chemogenomic Library” (2024).

Test [1] deals with T1, Mitogen-activated protein kinase 13 (Homo sapiens) (UniProt O15264).
T1 sequence (whole entry): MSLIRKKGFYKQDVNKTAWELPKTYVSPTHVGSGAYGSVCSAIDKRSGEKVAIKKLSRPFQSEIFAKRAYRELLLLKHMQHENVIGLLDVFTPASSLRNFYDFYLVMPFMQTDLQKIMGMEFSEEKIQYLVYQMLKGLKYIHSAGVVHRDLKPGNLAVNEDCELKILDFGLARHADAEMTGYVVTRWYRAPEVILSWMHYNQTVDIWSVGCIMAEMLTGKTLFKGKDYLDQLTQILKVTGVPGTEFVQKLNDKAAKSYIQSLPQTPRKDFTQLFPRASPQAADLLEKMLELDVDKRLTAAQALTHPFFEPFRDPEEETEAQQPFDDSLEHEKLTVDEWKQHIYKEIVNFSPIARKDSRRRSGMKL
Nature of the test: Selectivity interaction (ActivX KiNativ screen (ex vivo kinase selectivity in human PBMCs)) EUB0001619a MAPK13. The note with it: PBMC, at 1 µM. In kind it is cell-based.

Test [2] addresses T2, Ephrin type-B receptor 3 (Homo sapiens) (UniProt P54753).
T2 sequence (whole entry): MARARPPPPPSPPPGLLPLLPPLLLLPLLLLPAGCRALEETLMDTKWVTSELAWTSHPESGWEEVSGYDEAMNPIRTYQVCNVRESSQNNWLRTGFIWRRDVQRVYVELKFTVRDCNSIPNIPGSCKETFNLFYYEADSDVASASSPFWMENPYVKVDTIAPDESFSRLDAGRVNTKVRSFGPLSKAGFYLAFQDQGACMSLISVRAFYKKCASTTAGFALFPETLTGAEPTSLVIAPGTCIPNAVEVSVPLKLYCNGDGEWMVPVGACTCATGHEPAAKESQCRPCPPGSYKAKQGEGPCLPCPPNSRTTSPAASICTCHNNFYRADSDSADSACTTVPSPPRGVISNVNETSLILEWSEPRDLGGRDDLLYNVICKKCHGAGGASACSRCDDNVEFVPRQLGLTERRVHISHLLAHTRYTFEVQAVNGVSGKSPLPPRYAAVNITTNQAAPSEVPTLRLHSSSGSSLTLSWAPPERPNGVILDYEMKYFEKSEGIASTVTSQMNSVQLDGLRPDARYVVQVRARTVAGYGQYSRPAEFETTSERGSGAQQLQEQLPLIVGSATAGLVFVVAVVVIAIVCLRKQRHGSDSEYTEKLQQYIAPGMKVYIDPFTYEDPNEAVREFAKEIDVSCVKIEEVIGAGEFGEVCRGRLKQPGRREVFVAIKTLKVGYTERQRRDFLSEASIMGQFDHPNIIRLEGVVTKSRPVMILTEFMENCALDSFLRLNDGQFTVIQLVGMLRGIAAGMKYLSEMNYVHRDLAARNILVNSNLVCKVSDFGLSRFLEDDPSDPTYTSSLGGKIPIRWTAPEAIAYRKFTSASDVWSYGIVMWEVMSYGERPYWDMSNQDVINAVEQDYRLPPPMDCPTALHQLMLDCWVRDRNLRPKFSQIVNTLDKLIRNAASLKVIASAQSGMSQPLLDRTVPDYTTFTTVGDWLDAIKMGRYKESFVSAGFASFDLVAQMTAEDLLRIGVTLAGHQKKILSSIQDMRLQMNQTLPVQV
Nature of the test: Selectivity interaction (KinomeScan (DiscoverX)) EUB0000607a EPHB3. The note with it: at 10 µM.

In test [3] the target is Ribosomal protein S6 kinase alpha-3 (Homo sapiens, UniProt P51812). Briefly: Selectivity interaction (ActivX KiNativ screen (kinase selectivity in THP-1 cell lysates)) EUB0000639a RPS6KA3. The class given is subcellular. The note with it: lysate, at 1 µM.
Ribosomal protein S6 kinase alpha-3, sequence (P51812 whole entry): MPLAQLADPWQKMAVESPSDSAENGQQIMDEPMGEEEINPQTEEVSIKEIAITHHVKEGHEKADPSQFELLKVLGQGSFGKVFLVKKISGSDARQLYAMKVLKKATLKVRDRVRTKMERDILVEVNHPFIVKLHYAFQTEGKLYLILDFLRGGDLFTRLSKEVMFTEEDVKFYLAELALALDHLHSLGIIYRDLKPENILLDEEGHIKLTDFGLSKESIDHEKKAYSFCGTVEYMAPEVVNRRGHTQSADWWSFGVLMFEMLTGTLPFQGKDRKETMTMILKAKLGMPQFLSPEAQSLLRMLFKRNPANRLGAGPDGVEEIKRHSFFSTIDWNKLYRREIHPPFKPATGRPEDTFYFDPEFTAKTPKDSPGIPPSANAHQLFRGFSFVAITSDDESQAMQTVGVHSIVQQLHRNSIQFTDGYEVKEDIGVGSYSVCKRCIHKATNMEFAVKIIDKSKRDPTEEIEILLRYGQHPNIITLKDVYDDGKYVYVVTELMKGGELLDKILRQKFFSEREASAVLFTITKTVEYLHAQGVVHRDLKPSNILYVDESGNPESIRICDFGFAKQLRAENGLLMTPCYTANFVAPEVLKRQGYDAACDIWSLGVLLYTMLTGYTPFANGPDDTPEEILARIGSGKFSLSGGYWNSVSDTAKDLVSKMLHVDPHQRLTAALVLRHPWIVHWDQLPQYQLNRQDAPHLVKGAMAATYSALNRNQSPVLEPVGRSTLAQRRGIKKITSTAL
Test [4] concerns the target Dual specificity protein kinase CLK1 (Homo sapiens, UniProt P49759). Briefly: Selectivity interaction (Ambit KINOMEscan and KiNATiv profiling in Jurkat cells) EUB0000090b CLK1. The note with it: at 1 µM. In kind it is cell-based.
For test [5], the target named is Glutamate receptor ionotropic, NMDA 2B (Homo sapiens) (UniProt Q13224). Nature of the test: Selectivity interaction (Panel of kinases, GPCRs, ion channels and transporters (enzymatic assay)) EUB0000223bCl GRIN2B.
Glutamate receptor ionotropic, NMDA 2B (Homo sapiens), sequence (Q13224 27-1484 limits assumed): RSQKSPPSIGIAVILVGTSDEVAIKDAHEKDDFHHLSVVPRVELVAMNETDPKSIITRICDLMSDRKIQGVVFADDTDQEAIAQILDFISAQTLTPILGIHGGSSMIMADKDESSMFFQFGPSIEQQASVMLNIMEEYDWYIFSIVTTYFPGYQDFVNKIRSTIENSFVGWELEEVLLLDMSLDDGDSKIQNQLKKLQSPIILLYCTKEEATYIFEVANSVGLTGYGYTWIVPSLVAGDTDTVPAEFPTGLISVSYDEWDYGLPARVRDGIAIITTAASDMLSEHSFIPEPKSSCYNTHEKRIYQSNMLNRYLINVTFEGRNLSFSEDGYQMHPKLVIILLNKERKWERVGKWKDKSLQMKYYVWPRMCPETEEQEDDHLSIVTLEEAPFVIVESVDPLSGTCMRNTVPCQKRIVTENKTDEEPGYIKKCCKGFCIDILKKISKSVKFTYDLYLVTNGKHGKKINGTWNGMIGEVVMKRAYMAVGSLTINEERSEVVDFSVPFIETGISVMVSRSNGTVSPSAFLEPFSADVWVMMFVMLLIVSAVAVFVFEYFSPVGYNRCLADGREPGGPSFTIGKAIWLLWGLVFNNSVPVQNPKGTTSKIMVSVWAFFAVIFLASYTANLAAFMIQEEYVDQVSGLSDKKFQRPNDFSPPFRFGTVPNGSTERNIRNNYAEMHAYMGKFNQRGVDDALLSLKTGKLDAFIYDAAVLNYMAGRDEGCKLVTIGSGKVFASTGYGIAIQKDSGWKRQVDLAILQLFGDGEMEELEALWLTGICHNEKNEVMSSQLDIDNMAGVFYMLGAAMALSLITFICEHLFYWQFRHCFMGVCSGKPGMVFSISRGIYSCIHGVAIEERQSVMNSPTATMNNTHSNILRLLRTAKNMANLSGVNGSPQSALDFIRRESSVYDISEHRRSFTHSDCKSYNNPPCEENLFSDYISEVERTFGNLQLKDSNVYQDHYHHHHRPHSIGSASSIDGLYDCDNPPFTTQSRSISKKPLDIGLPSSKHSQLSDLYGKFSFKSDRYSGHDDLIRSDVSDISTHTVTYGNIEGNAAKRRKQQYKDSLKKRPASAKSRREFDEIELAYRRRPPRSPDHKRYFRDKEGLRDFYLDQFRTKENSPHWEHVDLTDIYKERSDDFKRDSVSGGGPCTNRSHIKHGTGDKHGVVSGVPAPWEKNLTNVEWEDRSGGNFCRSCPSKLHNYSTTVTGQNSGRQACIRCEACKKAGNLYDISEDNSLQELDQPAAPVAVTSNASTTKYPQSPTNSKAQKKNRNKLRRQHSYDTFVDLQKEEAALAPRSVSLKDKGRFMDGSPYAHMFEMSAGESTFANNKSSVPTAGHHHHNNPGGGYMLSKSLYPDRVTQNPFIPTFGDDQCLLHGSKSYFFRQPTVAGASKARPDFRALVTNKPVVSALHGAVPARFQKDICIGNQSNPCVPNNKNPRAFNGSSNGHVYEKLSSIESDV
Test [6] concerns the target T3, Serine/threonine-protein kinase TAO1 (Homo sapiens) (UniProt Q7L7X3).
T3 sequence (whole entry): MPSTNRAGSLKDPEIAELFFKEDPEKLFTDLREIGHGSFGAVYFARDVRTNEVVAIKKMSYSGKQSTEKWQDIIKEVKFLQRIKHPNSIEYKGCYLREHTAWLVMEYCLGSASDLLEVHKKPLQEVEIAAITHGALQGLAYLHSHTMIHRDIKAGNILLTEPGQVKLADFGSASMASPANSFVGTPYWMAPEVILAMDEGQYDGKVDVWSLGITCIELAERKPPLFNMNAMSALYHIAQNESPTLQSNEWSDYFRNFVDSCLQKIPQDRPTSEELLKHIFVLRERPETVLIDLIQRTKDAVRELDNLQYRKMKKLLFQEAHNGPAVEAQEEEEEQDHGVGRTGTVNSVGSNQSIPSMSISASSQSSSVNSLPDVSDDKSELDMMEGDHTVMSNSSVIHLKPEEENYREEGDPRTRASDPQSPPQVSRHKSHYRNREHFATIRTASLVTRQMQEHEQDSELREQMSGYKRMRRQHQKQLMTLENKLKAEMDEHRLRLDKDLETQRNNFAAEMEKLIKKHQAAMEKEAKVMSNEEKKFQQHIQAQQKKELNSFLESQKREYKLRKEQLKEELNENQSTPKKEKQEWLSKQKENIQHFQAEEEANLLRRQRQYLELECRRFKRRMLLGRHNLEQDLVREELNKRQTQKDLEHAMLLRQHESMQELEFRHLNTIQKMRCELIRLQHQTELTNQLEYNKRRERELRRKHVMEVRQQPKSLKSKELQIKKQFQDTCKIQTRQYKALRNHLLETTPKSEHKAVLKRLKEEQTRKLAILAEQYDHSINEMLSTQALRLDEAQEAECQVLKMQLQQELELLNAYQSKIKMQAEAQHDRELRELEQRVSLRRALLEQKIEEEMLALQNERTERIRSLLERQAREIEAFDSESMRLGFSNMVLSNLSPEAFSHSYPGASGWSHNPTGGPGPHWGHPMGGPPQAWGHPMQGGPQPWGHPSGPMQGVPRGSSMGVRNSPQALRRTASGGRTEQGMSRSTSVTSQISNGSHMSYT
Briefly: Selectivity interaction (KinomeScan (DiscoverX)) EUB0000618a TAOK1. The note with it: at 10 µM.

Test [7] addresses Non-receptor tyrosine-protein kinase TYK2 (Homo sapiens, UniProt P29597). Briefly: Selectivity interaction (KinomeScan (DiscoverX)) EUB0001079a TYK2. The note with it: at 1 µM.

Non-receptor tyrosine-protein kinase TYK2, sequence (P29597 whole entry): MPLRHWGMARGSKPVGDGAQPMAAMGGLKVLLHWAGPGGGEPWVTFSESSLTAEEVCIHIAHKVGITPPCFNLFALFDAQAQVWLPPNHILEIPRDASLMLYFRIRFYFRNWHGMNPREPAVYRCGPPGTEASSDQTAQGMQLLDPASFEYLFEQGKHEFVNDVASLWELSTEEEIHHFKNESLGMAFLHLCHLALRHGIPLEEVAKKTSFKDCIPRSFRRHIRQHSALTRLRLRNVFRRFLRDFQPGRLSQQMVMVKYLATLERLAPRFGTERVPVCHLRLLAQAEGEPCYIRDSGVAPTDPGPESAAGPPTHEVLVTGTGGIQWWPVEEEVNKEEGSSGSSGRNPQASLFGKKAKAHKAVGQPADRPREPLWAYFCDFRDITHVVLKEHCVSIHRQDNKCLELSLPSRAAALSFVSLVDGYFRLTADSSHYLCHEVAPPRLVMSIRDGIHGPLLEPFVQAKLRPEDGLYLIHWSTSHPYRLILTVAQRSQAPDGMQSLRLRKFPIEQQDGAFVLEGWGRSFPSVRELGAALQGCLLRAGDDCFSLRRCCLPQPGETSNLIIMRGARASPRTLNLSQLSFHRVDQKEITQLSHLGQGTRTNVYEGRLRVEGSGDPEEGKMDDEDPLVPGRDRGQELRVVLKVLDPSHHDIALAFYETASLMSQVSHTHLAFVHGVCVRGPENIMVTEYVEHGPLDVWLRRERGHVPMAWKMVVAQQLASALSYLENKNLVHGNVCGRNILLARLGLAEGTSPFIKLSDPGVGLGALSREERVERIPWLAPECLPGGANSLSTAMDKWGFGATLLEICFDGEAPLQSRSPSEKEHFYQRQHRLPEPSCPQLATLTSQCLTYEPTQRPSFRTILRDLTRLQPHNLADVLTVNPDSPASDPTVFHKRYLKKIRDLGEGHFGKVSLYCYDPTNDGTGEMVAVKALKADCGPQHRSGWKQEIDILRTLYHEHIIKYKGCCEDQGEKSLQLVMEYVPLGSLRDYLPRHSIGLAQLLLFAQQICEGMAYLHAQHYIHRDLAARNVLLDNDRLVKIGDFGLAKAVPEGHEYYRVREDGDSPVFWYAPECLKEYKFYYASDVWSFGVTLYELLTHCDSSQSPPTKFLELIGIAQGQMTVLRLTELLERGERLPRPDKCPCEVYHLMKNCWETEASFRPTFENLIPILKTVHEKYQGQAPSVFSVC
Dual specificity protein kinase CLK1, sequence (P49759 whole entry, looked up): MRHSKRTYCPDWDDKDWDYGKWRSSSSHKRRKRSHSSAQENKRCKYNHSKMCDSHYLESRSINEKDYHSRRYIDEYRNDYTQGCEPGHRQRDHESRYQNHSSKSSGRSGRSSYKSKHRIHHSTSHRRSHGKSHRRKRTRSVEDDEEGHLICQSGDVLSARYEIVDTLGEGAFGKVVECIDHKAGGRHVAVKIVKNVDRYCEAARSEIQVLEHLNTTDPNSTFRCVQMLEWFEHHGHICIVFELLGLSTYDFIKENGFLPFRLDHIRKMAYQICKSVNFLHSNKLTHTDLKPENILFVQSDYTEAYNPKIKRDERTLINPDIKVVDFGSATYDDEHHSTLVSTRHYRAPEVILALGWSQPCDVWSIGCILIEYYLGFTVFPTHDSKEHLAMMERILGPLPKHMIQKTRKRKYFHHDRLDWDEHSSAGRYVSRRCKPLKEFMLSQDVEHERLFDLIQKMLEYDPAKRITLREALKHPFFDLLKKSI

Turning to `N#Cc1cccc(-c2c[nH]c3ncnc(N4CCOCC4)c23)c1`, the % of inhibition in test [1] was -6%.
For `CNC(=O)Nc1ccc(-c2nc(N3CC4CCC(C3)O4)c3cnn(C4CCC5(CC4)OCCO5)c3n2)cc1`, the % of control in test [2] stood at 92%.
On to `CC[C@@H]1[C@H](F)C(=O)N[C@@H]1COc1nccc2cc(C(N)=O)c(OC)cc12` [ZIMLOVISERTIB], for which the % of inhibition in test [3] was -10.7%.
Turning to `CN(C)C/C=C/C(=O)Nc1ccc(C(=O)N2CCCC(Nc3ncc(Cl)c(-c4c[nH]c5ccccc45)n3)C2)cc1` (configuration not stated), in test [4], the % of control was 62%.
With `COc1cc(C(=O)N2CC[C@@H](O)[C@@H](N)C2)cc2nc(-c3cc4ccccc4n3CC3CC3)n(C)c12`, the pXC50 in test [5] came to 4.8 M.
For the molecule `O[C@H]1CC[C@H](Nc2ncc3nc(Nc4c(F)cc(F)cc4F)n([C@H]4CCOC4)c3n2)CC1`, the % of control in test [6] turned out to be 81%.
The molecule `Nc1cnc(N2CCc3cc(S(=O)(=O)Nc4c(F)cc(Cl)cc4F)cc(N4CCCC4=O)c32)nc1` [TP-020n] registered a % of control in test [7] of 100%.
